The structures appear in SMILES notation. Bounds are passed on as bounds.

As to `CC(C)(C)C1CCC(c2nnc(-c3cccc(C(=O)O)c3)o2)CC1` (centres unmarked) [Compound 622], the melting point (usually the temperature, or range, at which the solid turns liquid) fell in the range of 245 to 247 °C.

On to `O=C(O)c1cccc(-c2ncc(-c3ccc(C(F)(F)F)cc3)o2)c1` [Compound 586], for which the melting point was in the range of 223.5 to 225 °C.

With `O=C(O)c1cccc(-c2nc(-c3ccc(C(F)(F)F)cc3)n[nH]2)c1` [Compound 456], the melting point was 235 to 238 °C.

In the case of `O=C(O)c1ccc(-c2cc(-c3ccc(Cl)cc3)no2)cc1` [Compound 540], the melting point was 320.5 to 322.5 °C.

`CC(C)c1ccc(-c2coc(-c3cccc(C(=O)O)c3)n2)cc1` [Compound 276] yielded a melting point of 235 to 237 °C.

Compound `O=C(O)c1cccc(-c2noc(-c3ccccc3)c2C(=O)O)c1` [Compound 483] displayed a melting point of 255 to 257 °C.

`CN(C)c1cccc(-c2nnc(-c3cccc(C(=O)O)c3)o2)c1` [Compound 2] came in with a melting point of 187 to 189 °C.

`CC(C)c1cccc(-c2nnc(-c3ccc(C(=O)O)cc3)o2)c1` [Compound 7] yielded a melting point of 227 to 229 °C.

Take `CC(C)c1ccc(-c2nnc(-c3cccc(C(=O)O)c3)o2)cc1` [Compound 6, 3-[5-(4-isopropylphenyl)-[1,3,4]oxadiazol-2-yl]benzoic acid]: the melting point is 202 to 204 °C.

Take `CC(C)c1ccc(-c2nnc(-c3ccc(C(=O)O)cc3)s2)cc1` [Compound No. 324, 4-[5-(4-isopropylphenyl)-[1,3,4]thiadiazol-2-yl]benzoic acid]: the melting point is more than 300 °C.

`O=C(O)c1ccc(-c2nnc(-c3ccc(C(=O)N4CCCCC4)cc3)o2)cc1` [Compound 286] came in with a melting point of more than 310 °C.

`O=C(O)c1ccc(-c2cc(-c3ccccc3F)on2)cc1` [Compound 529] returned a melting point of 292.5 to 293.5 °C.

`O=C(O)c1ccc(-c2ncc(C#Cc3ccccc3)o2)cc1` [Compound 651]: the melting point was in the range of 251 to 253 °C.

In the case of `O=C(O)c1ccc(-c2ncc(-c3cccc(F)c3F)o2)cc1` [Compound 549], the melting point was in the range of 295 to 296 °C.

`O=C(O)c1cccc(-c2nc(-c3ccc(C(F)(F)F)cc3)no2)c1` [Compound 513] displayed a melting point of 249.5 to 251 °C.

As to `O=C(O)c1ccc(-c2cc(-c3ccc(F)cc3)on2)cc1` [Compound 530], the melting point fell in the range of 318 to 319 °C.

`CN(C)c1cccc(-c2nnc(-c3ccc(C(=O)O)cc3)o2)c1` [Compound 3] gave a melting point of 247 to 248 °C.

The compound `CC(C)c1ccc(-c2ncc(-c3cccc(C(=O)O)c3)o2)cc1` [Compound No. 320, 3-[2-(4-isopropylphenyl)-oxazol-5-yl]-benzoic acid] gave a melting point of 193 to 195 °C.

Compound `O=C(O)c1ccc(-c2cc(-c3ccc(F)cc3)no2)cc1` [Compound 537] displayed a melting point of 322 to 323 °C.

Turning to `O=C(O)Cc1ccc(-c2ncc(-c3ccc(F)cc3F)o2)cc1` [Compound 650], the melting point fell in the range of 191 to 193 °C.

With `O=C(O)c1cccc(-c2ncc(-c3cccc(Cl)c3)o2)c1` [Compound 583], the melting point is 220 to 222 °C.

With `O=C(O)c1ccc(-c2ncc(-c3cccc(OCc4ccccc4)c3)o2)cc1` [Compound 646], the melting point was 210 to 211 °C.

Regarding `CC(C)c1ccc(-c2nsc(-c3cccc(C(=O)O)c3)n2)cc1` [Compound No. 326, 3-[3-(4-isopropylphenyl)-[1,2, 4]thiadiazol-5-yl]benzoic acid], the melting point lay in the range of 166 to 168 °C.

On to `CN(C)c1cccc(-c2nnc(-c3ccccc3C(=O)O)o2)c1` [Compound 609], for which the melting point lay in the range of 71 to 78 °C.

Consider `COc1ccccc1-c1cnc(-c2cccc(C(=O)O)c2)o1` [Compound 593], for which the melting point lay in the range of 244 to 246 °C.

Turning to `COc1cccc(-c2n[nH]c(-c3cccc(C(=O)O)c3)n2)c1` [Compound 458], the melting point lay within 247 to 250 °C.

With `O=C(O)c1cccc(-c2nnc(-c3ccc4cc[nH]c4c3)o2)c1` [Compound 317], the melting point is > 290 °C (dec.).

`O=C(O)c1ccc(-c2ncc(-c3cc(F)cc(F)c3)o2)cc1` [Compound 641] came in with a melting point of 273 to 274 °C.

As for `O=C(O)c1cccc(-c2nc(-c3ccccc3F)no2)c1` [Compound No. 506, 3-[3-(2-fluorophenyl)-[1,2,4]oxadiazole-5-yl] benzoic acid], the melting point was in the range of 233 to 234 °C.

With `CC(C)c1cccc(-c2nnc(-c3cccc(C(=O)O)c3)o2)c1` [Compound 620], the melting point fell in the range of 190 to 192 °C.

Compound `O=C(O)c1cccc(-c2nnc(-c3ccc4[nH]ccc4c3)o2)c1` [Compound 316] registered a melting point of more than 270 °C.

The compound `O=C(O)c1ccc(-c2cc(-c3ccccc3F)no2)cc1` [Compound 535] showed a melting point of 302 to 303 °C.

For the compound `O=C(O)c1ccc(-c2cc(-c3cccc(F)c3)no2)cc1` [Compound 536], the melting point was in the range of 319 to 321 °C.

`CC(C)c1ccc(NC(=O)c2nnc(-c3cccc(C(=O)O)c3)o2)cc1` [Compound 283] registered a melting point of 220 to 226 °C.

Compound `O=C(O)c1cccc(-c2cc(-c3ccc(F)cc3)[nH]n2)c1` [Compound No. 552, 3-[5-(4-fluorophenyl)-1H-pyrazol-3-yl]benzoic acid] yielded a melting point of 270.5 to 272 °C.

Compound `CN(C)c1ccccc1-c1nnc(-c2cccc(C(=O)O)c2)o1` [Compound 605] yielded a melting point of 170 to 172 °C.

`COc1ccccc1-c1cnc(-c2ccc(C(=O)O)cc2)o1` [Compound 645] yielded a melting point of 305 to 306 °C.

In turn, `O=C(O)c1cccc(-c2cc(-c3ccc(CO)cc3)on2)c1` [Compound 575] came in with a melting point of 248 to 250 °C.

`O=C(O)c1ccc(-c2nnc(-c3ccccc3)o2)cc1` [Compound 596] gave a melting point of more than 275 °C.

For the compound `CC(C)c1ccc(-c2noc(-c3ccc(C(=O)O)cc3)n2)cc1` [Compound No. 140, 4-[3-(4-isopropylphenyl)-1,2,4-oxadiazol-5-yl]benzoic acid], the melting point was 253 to 255 °C.

`CC(C)c1ccc(-c2ccc(-c3cccc(C(=O)O)c3)s2)cc1` [Compound No. 400, 3-[5-(4-isopropylphenyl)thiophen-2-yl]benzoic acid] came in with a melting point of 233 to 235 °C.

`CC(C)c1ccc(NC(=O)Nc2cccc(-c3nnc(-c4ccc(C(=O)O)cc4)o3)c2)cc1` [Compound No. 60, 4-(5-{3-[3-(4-isopropylphenyl)ureido]phenyl}-[1,3,4]oxadiazol-2-yl)benzoic acid] returned a melting point of more than 270 °C.

`CN(C)c1ccc(-c2nnc(-c3cccc(C(=O)O)c3)o2)cc1` [Compound 4] showed a melting point of 268 to 270 °C.

`O=C(O)c1cccc(-c2nc(-c3cccnc3)n[nH]2)c1` [Compound 428] showed a melting point of more than 310 °C.

`O=C(O)c1cccc(-c2cc(-c3ccc(Br)cc3F)on2)c1` [Compound 482]: the melting point lay within 283.5 to 285 °C.

With `COc1ccc(-c2noc(-c3cccc(C(=O)O)c3)n2)cc1` [Compound 509], the melting point was 281.5 to 283 °C.

For the compound `Cc1cccc(-c2ccc(-c3nnc(-c4cccc(C(=O)O)c4)o3)cn2)c1` [Compound 282], the melting point was 274 to 275 °C.

These data come from patent publication US9611230B2, “1,3,4-oxadiazole benzoic acid compounds and their use for nonsense suppression and the treatment of disease” (PTC Therapeutics, Inc., priority 2004, dated 2017).
